The record followed here is publication PMC7558026, “Exploring and applying the substrate promiscuity of a C-glycosyltransferase in the chemo-enzymatic synthesis of bioactive C-glycosides” (Nature Communications, 2020).

One test addresses T1, SGLT2 (Homo sapiens, UniProt P31639).
T1 construct: Human full-length SGLT2 cDNA (NM_003041.3) was synthesized; expressed in transfected cells; host or cells: HEK293, retroviral transduction with pMSCVpuro-SGLT2, puromycin selected
T1 sequence (P31639 1-672): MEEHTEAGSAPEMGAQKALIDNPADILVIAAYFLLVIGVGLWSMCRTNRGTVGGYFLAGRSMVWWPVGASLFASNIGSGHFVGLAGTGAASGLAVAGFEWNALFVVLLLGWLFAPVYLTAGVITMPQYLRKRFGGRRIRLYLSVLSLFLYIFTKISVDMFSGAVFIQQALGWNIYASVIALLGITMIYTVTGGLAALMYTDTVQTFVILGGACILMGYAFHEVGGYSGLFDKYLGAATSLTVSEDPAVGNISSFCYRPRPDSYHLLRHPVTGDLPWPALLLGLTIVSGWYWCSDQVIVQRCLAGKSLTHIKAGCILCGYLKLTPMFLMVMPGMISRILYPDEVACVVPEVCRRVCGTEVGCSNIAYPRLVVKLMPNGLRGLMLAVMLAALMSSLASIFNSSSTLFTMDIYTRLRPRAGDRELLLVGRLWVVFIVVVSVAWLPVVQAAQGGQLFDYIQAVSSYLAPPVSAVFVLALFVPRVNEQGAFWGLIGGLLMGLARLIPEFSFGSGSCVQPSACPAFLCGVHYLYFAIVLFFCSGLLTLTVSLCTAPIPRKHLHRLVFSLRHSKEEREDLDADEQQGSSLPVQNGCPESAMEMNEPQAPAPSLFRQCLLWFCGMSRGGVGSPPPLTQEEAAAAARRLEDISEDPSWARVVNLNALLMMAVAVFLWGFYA
The test can be described thus: 1-NBDG uptake in HEK293 cells stably expressing SGLT2. In kind it is cell-based. Conditions: triplicate; for inhibition at 10 µM: HEK293, compound at 10 μM, read-out: SGLT2 inhibitory rates; for SGLT2 inhibitory rates: compound at 10 μM, 10 µM.

Test [1] has as its target T2, AbCGT (Aloe vera, UniProt A0A7G9P699). The test can be described thus: Glycosyltransferase activity assay, purified AbCGT (wild type) with aglycon acceptors and UDP-Glc. The format is biochemical, Aloe barbadensis. To be noted: fig. 2b, purified AbCGT, redesigned substrates; Reaction-1 to -3.
Test [2] has as its system E. coli-AbCGT. The test can be described thus: Glycosylation by whole-cell biocatalyst E. coli-AbCGT. The format is cell-based. Conditions: fig. 2c, 30 °C, M9 medium, 12 h, 0.25 mM acceptor; Reaction-1 to -3. The procedure: The induced cells of E. coli-AbCGT were harvested by centrifugation at 3000 × g for 5 min at 4 °C and washed with ddH2O. Pellets were resuspended by M9 minimal medium containing 2% glucose to appropriate cell density (OD600 = 3.0). Prepared whole-cell biocatalyst of E. coli-AbCGT (500 μL) was then added to 2-mL tubes containing various acceptors at a concentration of 0.25 mM. The mixture was incubated at 30 °C for 12 h with shaking (200 rpm). The reactions were analyzed using GT activity assays as described above. For quantification, three parallel assays were routinely carried out.

Test [3] deals with E. coli-AbCGT. The test can be described thus: Optimization of cell density and substrate concentration in whole-cell biocatalysis. Conditions: replicates 1-3; for Conversion rate of 46: substrate 150 mg L^‒1; for conversion rate: OD600 = 13.0. The format is cell-based. The method, then:
To study the optimal cell density, the reaction was performed in various cell densities with OD600 values in the range of 1.0−15.0 and a substrate concentration of 150 mg L^‒1. […] For quantification, three parallel assays were routinely carried out.

A further test has as its target T3, SGLT1 (Homo sapiens, UniProt P13866).
T3 construct: The full-length SGLT1 cDNA was obtained by PCR with forward primer; expressed in transfected cells
T3 sequence (P13866 1-664): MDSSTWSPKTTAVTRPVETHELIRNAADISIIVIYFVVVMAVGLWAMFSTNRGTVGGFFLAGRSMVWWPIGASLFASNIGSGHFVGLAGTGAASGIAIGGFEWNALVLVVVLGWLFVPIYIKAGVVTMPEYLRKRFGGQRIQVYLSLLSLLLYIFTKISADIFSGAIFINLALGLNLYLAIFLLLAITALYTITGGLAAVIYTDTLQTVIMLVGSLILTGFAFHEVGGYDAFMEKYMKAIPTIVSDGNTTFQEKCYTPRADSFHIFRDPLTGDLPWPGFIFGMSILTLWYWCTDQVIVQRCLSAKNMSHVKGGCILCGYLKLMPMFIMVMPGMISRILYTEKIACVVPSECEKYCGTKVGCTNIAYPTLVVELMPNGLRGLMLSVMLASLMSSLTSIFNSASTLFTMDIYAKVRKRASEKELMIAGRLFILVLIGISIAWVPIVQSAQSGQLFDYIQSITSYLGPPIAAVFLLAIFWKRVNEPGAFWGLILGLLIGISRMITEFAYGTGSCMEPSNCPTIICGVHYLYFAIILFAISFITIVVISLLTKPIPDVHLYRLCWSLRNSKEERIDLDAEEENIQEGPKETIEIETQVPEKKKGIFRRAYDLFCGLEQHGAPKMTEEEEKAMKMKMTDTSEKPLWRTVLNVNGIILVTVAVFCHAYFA
The test can be described thus: 1-NBDG uptake in HEK293 cells stably expressing SGLT1. In kind it is cell-based. To be noted: HEK293, compound at 10 μM; triplicate; read-out: SGLT1 inhibitory rates.

For test [4], the target named is T2, AbCGT. The test can be described thus: Sugar donor promiscuity of AbCGT with phloretin (17) as acceptor. Conditions: sugar donor with phloretin (17) as acceptor; Reaction-1 to -3. The format is biochemical, Aloe barbadensis. The method, then: The reaction mixture contained 0.5 mM sugar donors (1.0 mM for di-glycosylation), 0.25 mM aglycons, 50 mM Tris-HCl (pH 7.4), and 50‒100 μg of purified AbCGT in a final volume of 100 μL. Due to the instability of some acceptors in the buffer of pH 11.0, the reactions were performed under the physiological conditions (pH 7.4, 30 °C) to compare the catalytic activities of AbGT27 with different substrates under the same conditions. The reactions were performed at 30 °C for up to 12 h and terminated by the addition of 200 μL of ice-cold methanol. Subsequently, samples were centrifuged at 15,000 × g for 30 min to collect the supernatant, and aliquots were analyzed by HPLC-UV/ESIMS. HPLC analysis was performed on a Shiseido CAPCELL PAK C18 MG III column (250 mm × 4.6 mm I.D., 5 μm, Shiseido Co., Ltd., Japan) at a flow rate of 1 mL min^‒1. The mobile phase was a gradient elution of solvents A (0.1% formic acid aqueous solution) and B (methanol). The gradient programs were used for the analysis of the reactions (Supplementary Table 6). The conversion rates of the enzyme reactions were calculated from peak areas of glycosylated products and substrates as analyzed by HPLC. To facilitate inferential statistical analysis, three parallel assays were routinely performed; the means ± SD from triplicate analyses are reported here.

Several values for one entry are separate records, joined by “and”; a condition that tells them apart may be missing. Equal entries are not always repeated.

T2 sequence (A0A7G9P699 entry or part of it): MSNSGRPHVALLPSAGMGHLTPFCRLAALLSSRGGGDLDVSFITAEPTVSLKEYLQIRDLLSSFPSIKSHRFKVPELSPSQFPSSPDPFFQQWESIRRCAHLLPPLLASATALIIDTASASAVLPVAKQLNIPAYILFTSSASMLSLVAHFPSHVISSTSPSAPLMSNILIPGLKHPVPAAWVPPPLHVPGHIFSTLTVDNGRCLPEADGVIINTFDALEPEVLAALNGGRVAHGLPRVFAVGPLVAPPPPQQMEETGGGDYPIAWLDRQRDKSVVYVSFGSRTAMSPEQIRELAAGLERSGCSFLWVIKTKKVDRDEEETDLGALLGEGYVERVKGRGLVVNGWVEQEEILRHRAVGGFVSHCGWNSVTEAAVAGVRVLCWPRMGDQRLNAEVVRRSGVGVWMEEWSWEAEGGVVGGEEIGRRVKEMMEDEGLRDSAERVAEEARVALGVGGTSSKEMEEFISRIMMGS

With `Cc1ccc(Cc2c(O)cc(O)cc2O)cc1` [Compound 46], the inhibition at 10 µM at SGLT2 amounted to 10.8%. On AbCGT [1], the “conversion rates, Purified Enzyme” value turned out to be 100%. The “conversion rates, Whole cells” value with E. coli-AbCGT [2] is 89% and 80.2% and 82.3%. Further, the “Conversion rate of 46” value in the test with E. coli-AbCGT [3] (OD600nm 1.0) was 2% and 4% (2×); in the test on E. coli-AbCGT [3] (OD600nm 3.0), 13% and 11% and 15%; in the test with E. coli-AbCGT [3] (OD600nm 5.0) it was 22% (2×) and 19%; with E. coli-AbCGT [3] (OD600nm 7.0) it was 26% and 28% and 32%; in the test with E. coli-AbCGT [3] (OD600nm 9.0), 33% (2×) and 29%; with E. coli-AbCGT [3] (OD600nm 11.0) it was 38% and 34% and 33%. In addition, the “Conversion rate of 46” value was 38% in the test with E. coli-AbCGT [3] (OD600nm 13.0); 43% and 35% (2×) with E. coli-AbCGT [3] (OD600nm 15.0). For the same compound, the conversion rate in the test on E. coli-AbCGT [3] (concentration of 46 57.5 mg/L) was 100%; in the test with E. coli-AbCGT [3] (concentration of 46 115 mg/L) it was 100%; with E. coli-AbCGT [3] (concentration of 46 172.5 mg/L), 100%; with E. coli-AbCGT [3] (concentration of 46 230 mg/L), 100%; in the test with E. coli-AbCGT [3] (concentration of 46 287.5 mg/L), 89% and 92% and 93%; in the test on E. coli-AbCGT [3] (concentration of 46 345 mg/L) it was 27.5% and 20% and 29.8%. Moreover, the conversion rate was 13.6% and 13.9% and 14% with E. coli-AbCGT [3] (concentration of 46 460 mg/L); 8.8% and 8.5% and 8% in the test on E. coli-AbCGT [3] (concentration of 46 575 mg/L).

For the compound `CCCCc1ccc(Cc2c(O)cc(O)c(C3OC(CO)C(O)C(O)C3O)c2O)cc1` (stereo not shown) [Compound 47a], the inhibition at 10 µM on SGLT2 is more than 96%; on SGLT1 it was 17.1%. This compound also registered an SGLT2 inhibitory rates on SGLT2 of 100%.

Regarding `OCC1OC(c2c(O)cc(O)c(Cc3ccc(Cl)cc3)c2O)C(O)C(O)C1O` (stereo not shown) [Compound 49a], on SGLT2, the inhibition at 10 µM is more than 96% and the SGLT2 inhibitory rates was 98.5%. Also, the inhibition at 10 µM on SGLT1 is 34.7%.

With `OCC1OC(c2c(O)cc(O)c(Cc3ccc(-c4ccccc4)cc3)c2O)C(O)C(O)C1O` (stereo not shown) [Compound 50a], the inhibition at 10 µM on SGLT2 is more than 96%; at SGLT1, 27.1%. Also, the SGLT2 inhibitory rates on SGLT2 worked out at 96.3%.

Turning to `O=C(O)C1OC(OP(=O)(O)OP(=O)(O)OCC2OC(n3ccc(=O)[nH]c3=O)C(O)C2O)C(O)C(O)C1O` [e, UDP-α-D-glucuronic acid], on AbCGT [4], the “conversion rates, O,N,S-glycosylation” value is on record as 0%; the “conversion rates, di-C-glycosylation” value amounted to 0%; the “conversion rates, mono-C-glycosylation” value is 4.8% and 5.3%.

Consider `CC(=O)NC1C(OP(=O)(O)OP(=O)(O)OCC2OC(n3ccc(=O)[nH]c3=O)C(O)C2O)OC(CO)C(O)C1O` (stereo not shown) [f], for which, at AbCGT [4], the “conversion rates, O,N,S-glycosylation” value turned out to be 0%; the “conversion rates, di-C-glycosylation” value is recorded as 0%; the “conversion rates, mono-C-glycosylation” value was 0%.
